Target: Bromodomain-containing protein 4 (Homo sapiens, UniProt O60885)
Assay: Alphascreen Binding Assay: Binding of compounds of formula (I) with bromodomain 2, 3 4 was assessed using Alphascreen binding assay. The inhibition of the interaction between bromodomain and its acetylated target protein (Filippakopoulos P et al. 2012) was measured quantitatively using recombinant BRD proteins, an acetylated Histone 4 peptide and AlphaScreen technology. In absence of inhibition the BRD protein bound to AlphaScreen nickel chelate acceptor beads can interact with the acetylated Histone 4 peptide which is immobilized by the AlphaScreen Streptavidin coated beads. This interaction brings donor and acceptor beads in proximity. The close proximity allows the singlet oxygen produced by laser excitation of the donor beads to reach the acceptor beads and generate a luminescence signal. BRD inhibitors result in a decrease in the proximity signal through an inhibition of the BRD-acetylated peptide interaction.Recombinant human bromodomains containing the N-terminal bromodomain (BRD2-BD1 (71-194), BRD3-BD1 (24-144) and BRD4-BD1 (44-164)) or dual bromodomains (BRD4-BD12 (1-477), BRD4-BD12 (1-472)) were prepared and purified as described in protein expression and purification session.

- IC50: < 1 µM
SMILES: Cc1noc(C)c1-c1cnc2c(c1)c(CC1CCN(S(=O)(=O)c3ccccc3)CC1)cn2C

From ChEMBL document CHEMBL5727461, “Heterocyclic compounds and uses thereof” (2019)
